The subject of data set [1] is Haemonchus contortus. Briefly: In vivo percentage Haemonchus contortus egg reduction in sheep at dose 0.01 mg/kg body weight. The data set is classed as functional.
Data set [2] is described as follows: Partition coefficient (logP) (HPLC). It counts as physicochemical. The conditions noted are these: octanol/water.
In data set [3] the test system is Haemonchus contortus. Briefly: In vivo percentage Haemonchus contortus egg reduction in sheep at dose. 20 mg/kg body weight. It counts as functional, organism-based. Further details: dose 20 mg/kg. The conditions noted are these: at 20 mg/kg.
Data set [4] concerns Haemonchus contortus. Briefly: In vivo percentage Haemonchus contortus egg reduction in sheep at dose 0.05 mg/kg body weight. It counts as functional.
The test system of data set [5] is Haemonchus contortus. Kind of data set: In vivo percentage Haemonchus contortus egg reduction in sheep at dose 0.25 mg/kg body weight. The data set is classed as functional.
Data set [6] relates to Haemonchus contortus. Briefly: In vivo percentage Haemonchus contortus egg reduction in sheep at dose 0.10 mg/kg body weight. As to conditions: dose 0.1 mg/kg. The data set is classed as functional.
The test system of data set [7] is Haemonchus contortus. Kind of data set: In vivo percentage Haemonchus contortus egg reduction in sheep at dose 20 mg/kg body weight. It counts as functional.
For data set [8], the system named is Haemonchus contortus. Briefly: In vivo percentage Haemonchus contortus egg reduction in sheep at dose 0.25 mg/kg body weight; Range 50-75%. The data set is classed as functional.

What is called logP is a log measure of how a compound divides between an organic and an aqueous phase. Read a high logP as higher lipophilicity. With `CCN1C(=O)C2OC3(C)C=C(C)C=NC3C2C1=O` (stereo not drawn), in the data set with Haemonchus contortus [1], the Reduction result is “>=95%”. For the same molecule, in data set [2], the logP was 0.46. Take IVERMECTIN: in the data set with Haemonchus contortus [3], the Reduction is over 95%. For the molecule `CC1=CC2(C)OC3C(=O)N(C4CC4)C(=O)C3C2N=C1` (stereo not drawn), in the data set with Haemonchus contortus [4], the Reduction entry is “>=95%”. In data set [2], the log partition coefficient (logP) came to 0.5. For `CC1=CC2(C)OC3C(=O)N([C@@H](C)c4ccccc4)C(=O)C3C2N=C1` (stereo partly drawn) the same measures were “>=95%” and 1.7. For the molecule `CCCCN1C(=O)C2OC3(C)C=C(C)C=NC3C2C1=O` (stereo not drawn), the Reduction entry in the data set with Haemonchus contortus [4] is reported as “>=95%”. In data set [2], the lipophilicity (logP) came to 1.3. As for `CCN1C(=O)[C@@H]2[C@H](O[C@@]3(C)C=C(C)C=N[C@H]23)C1=O`, the lipophilicity (logP) in data set [2] was 0.46. In the data set on Haemonchus contortus [5], the Reduction entry is “>=95%”. For `CC1=CC2(C)OC3C(=O)N(C)C(=O)C3C2N=C1` (stereo not drawn), in the data set on Haemonchus contortus [6], the Reduction result is “>=95%”. Also, the logP in data set [2] is under 0. Turning to `COC(=O)Nc1nc2cc(C(=O)c3ccccc3)ccc2[nH]1` [MEBENDAZOLE], in the data set on Haemonchus contortus [7], the Reduction result is given as “>=95%”. For `CCN1C(=O)[C@H]2[C@@H](O[C@]3(C)C=C(C)C=N[C@@H]23)C1=O`, the Reduction in the data set with Haemonchus contortus [8] is reported as 75%. Besides, the log partition coefficient (logP) in data set [2] was 0.46. `CC1=CC2(C)OC3C(=O)N(Cc4ccccc4)C(=O)C3C2N=C1` (stereo not drawn): the Reduction result in the data set with Haemonchus contortus [6] is reported as “>=95%”. The same molecule displayed a logP in data set [2] of 1.51.

(Values after ChEMBL document CHEMBL1141926, “Synthesis and anthelmintic activity of 7-substituted 3,4a-dimethyl-4a,5a,8a,8b-tetrahydro-6H-pyrrolo[3',4':4,5]furo[3,2-b]pyridine-6,8(7H)-diones” (Bioorg Med Chem Lett, 2005).)
